The target in experiment [1] is T1, Rat Hepatic V1 Receptors (vasopressin V1) (Rattus norvegicus, UniProt P30560).
T1 construct: Rat liver plasma membranes expressing the vasopressin V1 receptor subtypes are isolated by sucrose density gradient; from tissue; host or cells: rat liver plasma membranes
Briefly: Binding Assay to Rat Hepatic V1 Receptors. The conditions noted are these: rat hepatic V1, [3H]vasopressin. The procedure:
Binding Assay to Rat Hepatic V1 Receptors
Rat liver plasma membranes expressing the vasopressin V1 receptor subtypes are isolated by sucrose density gradient according to the method described by Lesko et al., (1973). These membranes are quickly suspended in 50.0 mMTris.HCl buffer, pH 7.4, containing 0.2% bovine serum albumin (BSA) and 0.1 mM phenylmethylsulfonylfluoride (PMSF) and kept frozen at -70° C. until used in subsequent binding experiments. For binding experiments, the following is added to the wells of a ninety-six well format microtiter plate: 100 μl of 100.0 mM Tris.HCl buffer containing 10.0 mM MgCl2, 0.2% heat inactivated BSA and a mixture of protease inhibitors: leupeptin, 1.0 mg %; aprotinin, 1.0 mg %, 1,10-phenanthroline,2.0 mg %; trypsin inhibitor, 10.0 mg % and 0.1 mM PMSF, 20.0 μl of [phenylalanyl-3,4,5-^3 H]vasopressin (S.A. 45.1 Ci/mmole) at 0.8 nM, and the reaction initiated by the addition of 80 μl of tissue membranes containing 20 μg of tissue protein. The plates are kept undisturbed on the bench top at room temperature for 120 min. to reach equilibrium. Nonspecific samples are assayed in the presence of 0.1 μM of the unlabeled antagonist phenylalanylvasopressin, added in 20.0 μl volume to a final incubation volume of 200 μl. Upon completion of binding, the content of each well is filtered off, using a Brandel® cell Harvester (Gaithersburg, Md.). The radioactivity trapped on the filter disk by the ligand-receptor complex is assessed by liquid scintillation counting in a Packard LS Counter, with an efficiency of 65% for tritium. The data are analyzed for IC50 values by the LUNDON-2 program for competition (LUNDON SOFTWARE, OH).

Experiment [2] deals with T2, Rat Kidney Medullary V2 Receptors (vasopressin V2) (Rattus norvegicus, UniProt Q00788).
T2 construct: Medullary tissues from rat kidneys are dissected out; from tissue; host or cells: rat kidney medulla membranes
T2 sequence (Q00788 whole entry): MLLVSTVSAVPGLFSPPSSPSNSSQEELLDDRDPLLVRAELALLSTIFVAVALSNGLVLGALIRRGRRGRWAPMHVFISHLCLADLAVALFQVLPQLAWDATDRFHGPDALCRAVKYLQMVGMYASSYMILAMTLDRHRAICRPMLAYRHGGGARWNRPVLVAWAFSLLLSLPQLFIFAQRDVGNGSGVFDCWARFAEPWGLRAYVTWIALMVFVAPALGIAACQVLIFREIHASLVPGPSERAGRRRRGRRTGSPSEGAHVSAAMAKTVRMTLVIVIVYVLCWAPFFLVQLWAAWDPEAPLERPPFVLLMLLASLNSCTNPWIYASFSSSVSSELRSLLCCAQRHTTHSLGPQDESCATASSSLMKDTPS
Briefly: Binding Assay to Rat Kidney Medullary V2 Receptors. Conditions: rat kidney medullary V2, [3H]Arg8-vasopressin. In a few lines: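 Membranes from rat kidney medulla (200 μg protein) were equilibrated for 120 min on the bench with [3H]arginine8-vasopressin, added as a 0.8 nM solution, in Tris-HCl containing MgCl2, heat-inactivated BSA and protease inhibitors. Compounds were dissolved in 50% DMSO, and 1.0 μM unlabeled ligand gave nonspecific binding. Filtration, scintillation counting and competition analysis gave IC50.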

T1 sequence (P30560 whole entry): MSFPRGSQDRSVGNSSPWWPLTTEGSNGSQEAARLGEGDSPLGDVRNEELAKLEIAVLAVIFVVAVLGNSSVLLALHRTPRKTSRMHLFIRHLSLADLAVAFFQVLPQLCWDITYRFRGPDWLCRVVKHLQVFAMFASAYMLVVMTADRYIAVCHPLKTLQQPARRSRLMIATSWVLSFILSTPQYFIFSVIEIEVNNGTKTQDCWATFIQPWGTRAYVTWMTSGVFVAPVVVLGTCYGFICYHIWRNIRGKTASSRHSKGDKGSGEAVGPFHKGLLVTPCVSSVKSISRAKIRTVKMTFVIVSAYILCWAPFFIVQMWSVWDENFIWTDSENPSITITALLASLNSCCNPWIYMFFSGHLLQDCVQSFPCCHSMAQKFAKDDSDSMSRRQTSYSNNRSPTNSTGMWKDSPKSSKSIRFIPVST

Broadly, the IC50 is the concentration that inhibits the measured activity by half. High values mean weaker potency, low ones greater potency. `Cc1ccccc1C(=O)Nc1ccc(C(=O)N2CCCCc3sc(Cl)cc32)cc1` [Example 96, N-[4-[(2-Chloro-5,6,7,8-tetrahydro-4H-thieno[3,2-b]azepin-4-yl)carbonyl]phenyl]-2-methylbenzamide]: the figures for the half-maximal inhibitory concentration (IC50) in experiment [1] and in experiment [2] were 0.088 µM and 0.01 µM, respectively.
For `Cc1c(F)cccc1C(=O)Nc1ccc(C(=O)N2CCCC(=O)c3sccc32)cc1` [Example 155, N-[4-[(5,6,7,8-Tetrahydro-8-oxo-4H-thieno[3,2-b]azepine-4-yl)carbonyl]phenyl]-3-fluoro-2-methylbenzamide], the IC50 in experiment [1] was determined as 7.6 µM; in experiment [2], 0.25 µM.
On to `O=C(Nc1ccc(C(=O)N2CCCC(=O)c3sccc32)cc1)c1ccc(Cl)cc1Cl` [Example 156, N-[4-[(5,6,7,8-Tetrahydro-8-oxo-4H-thieno[3,2-b]azepin-4-yl)carbonyl]-phenyl]-2,4-dichlorobenzamide], for which the figures for the IC50 in experiment [1] and in experiment [2] were 5.5 µM and 0.33 µM, respectively.
In the case of `Cc1ccccc1CC(=O)Nc1ccc(C(=O)N2CCCCc3sccc32)cc1` [Example 13, N-[4-[(5,6,7,8-Tetrahydro-4H-thieno[3,2-b]azepin-4-yl)carbonyl]phenyl]2-methylbenzeneacetamide], the IC50 in experiment [1] turned out to be 0.014 µM; in experiment [2], 0.01 µM.
Regarding `O=C(Nc1ccc(C(=O)N2CCCCc3sc(Cl)cc32)cc1)c1ccc(Cl)cc1Cl` [Example 93, 2,4-Dichloro-N-[4-[(2-chloro-5,6,7,8-tetrahydro-4H-thieno[3,2-b]azepin-4-yl)carbonyl]phenyl]benzamide], the values for the concentration for half-maximal inhibition (IC50) in experiment [1] and in experiment [2] were 0.23 µM and 0.019 µM, respectively.
Take `Cc1c(F)cccc1C(=O)Nc1ccc(C(=O)N2CCCCc3sc(Cl)cc32)cc1` [Example 94, N-[4-[(2-Chloro-5,6,7,8-tetrahydro-4H-thieno[3,2-b]azepin-4-yl)carbonyl]phenyl]-3-fluoro-2-methylbenzamide]: the IC50 in experiment [1] turned out to be 0.16 µM; in experiment [2] it was 0.01 µM.
For `O=C(Nc1ccc(C(=O)N2CCCCc3sccc32)cc1)c1cc(Cl)ccc1Cl` [Example 9, N-[4-[(5,6,7,8-Tetrahydro-4H-thieno[3,2-b]azepin-4-yl)carbonyl]phenyl]2,5-dichlorobenzamide], the IC50 was 0.21 µM in experiment [1] and 0.034 µM in experiment [2].
As to `Cc1ccccc1C(=O)Nc1ccc(C(=O)N2CCCC(=O)c3sccc32)cc1` [Example 157, N-[4-[(5,6,7,8-Tetrahydro-8-oxo-4H-thieno[3,2-b]azepin-4-yl)carbonyl]-phenyl]-2-methylbenzamide], the half-inhibitory concentration (IC50) came to 3.6 µM in experiment [1] and 0.25 µM in experiment [2].

The values are drawn from patent publication US5696112A, “Fused heterocyclic azepines as vasopressin antagonists” (American Cyanamid Company, priority 1995, dated 1997).
